In patent US8163739B2, “2-arylthiazole-4-carboxamide derivatives, their preparation and use as pharmaceuticals” (Bayer Pharma Aktiengesellschaft, priority 2007, dated 2012) one finds EC50 data, which are given here for six molecules.

The test deals with TLR7. As to the kind of experiment: TLR-induced cytokine release in human peripheral blood mononuclear cells (PBMC), TNF-alpha ELISA. The format is cell-based. To be noted: 18 hours incubation, TLR7 ligand, TNF-alpha by ELISA, read-out: EC50 (TNF-α TLR7). As for the experimental part:
TLR-induced Cytokine Release in Human “Peripheral Blood Mononuclear Cells” (PBMC)
PBMCs isolated from human whole blood are stimulated using a TLR ligand.
The cytokine determination is carried out by means of ELISA kits; a proliferation/cell metabolism determination is carried out using Alamar Blue.
For the cell preparation, about 200 ml of blood are treated with an anticoagulant (e.g. citrate Monovettes). Per Leucosep tube, 15 ml of Histopaque (room temperature, RT) are poured in and forced downwards through the inserted frit by brief initial centrifugation (one minute at 1000×g, RT). 20 ml of blood are added to the tubes prepared in this way and centrifuged at 800×g for 15 minutes (RT). After centrifugation, the following layered arrangement results from the top to the bottom:
plasma-PBMC-Histopaque-filter disc-Histopaque-erythrocytes and granulocytes. The supernatant plasma is aspirated. The PBMC are transferred together with the underlying Histopaque to a new 50 ml tube, the contents of two Leucosep tubes always being added to one 50 ml tube. The 50 ml tubes are then filled to 50 ml with PBS. This cell suspension is centrifuged at 300×g (RT) for 10 minutes.
The liquid supernatant is tipped off and the cell pellet is resuspended with a little PBS and subsequently filled to 50 ml with PBS. This washing step is repeated twice. The resulting pellet is taken up in a defined volume of medium (with additives). For the testing of the substances, PBMC are incubated for 18 hours with titrated concentrations of the test substances, e.g. in the presence or absence of TLR7 or TLR9 ligands. On the next day, the supernatants are investigated for the content of TNF-alpha or other cyto- or chemokines by means of specific ELISA. The metabolic activity of the treated cells is determined with the aid of Alamar Blue.
In general terms: In an ELISA, binding on a coated surface is turned into a signal by an enzyme label.
Turning to `Cn1ncc(NC(=O)c2csc(-c3ccc4c(c3)CCO4)n2)c1C(N)=O` [Example 2.1, N-[5-(Aminocarbonyl)-1-methyl-1H-pyrazol-4-yl]-2-(2,3-dihydro-5-benzofuranyl)-4-thiazolecarboxamide], the EC50 (as a rule, the concentration that produces a half-maximal response) is 1200 nM.
In the case of `COc1ccc(-c2nc(C(=O)Nc3ccccc3C(N)=O)cs2)cc1F` [Example 3.4, N-[2-(Aminocarbonyl)phenyl]-2-(3-fluoro-4-methoxyphenyl)-4-thiazole-carboxamide], the EC50 was 120 nM.
The figure for `Cn1cc(NC(=O)c2csc(-c3cccc(S(C)(=O)=O)c3)n2)c(C(N)=O)n1` [Example 1.1, 2-(3-Methanesulphonylphenyl)thiazole-4-(3-carbamoyl-1-methyl-1H-pyrazol-4-yl)carboxamide] is 85 nM; for `NC(=O)c1ccccc1NC(=O)c1csc(-c2ccc3c(c2)OCO3)n1` [Example 3.1, N-[2-(Aminocarbonyl)phenyl]-2-(3,4-methylenedioxyphenyl)-4-thiazolecarboxamide] it is 300 nM; for `CS(=O)(=O)c1cccc(-c2nc(C(=O)Nc3ccccc3C(N)=O)cs2)c1` [Example 3.2, N-[2-(Aminocarbonyl)phenyl]-2-(3-methylsulphonylphenyl)-4-thiazole-carboxamide] it is 3400 nM.
As for `CN1CCc2c(sc(NC(=O)c3csc(-c4ccc5c(c4)CCO5)n3)c2C(N)=O)C1` [Example 2.5, 2-{[2-(2,3-Dihydrobenzofuran-5-yl)thiazole-4-carbonyl]amino}-6-methyl-4,5,6,7-tetrahydrothieno[2,3-c]pyridine-3-carboxamide], the figure is 1100 nM.
